Experimental data published in PubChem BioAssay (NCI).
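Protocol summary: plate cells (96-well), add compound at 5 concentrations, incubate 48 h, interpolate endpoints linearly. The concentration for 50% growth inhibition is given as GI50. TGI denotes the concentration required for complete inhibition of growth.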

Assays:
Test in all cases: NCI tumour cell line growth inhibition, 48 h
M14 melanoma = test system: M14 melanoma
SK-MEL-28 melanoma = test system: SK-MEL-28 melanoma
HS 578T breast = test system: HS 578T breast
SF-539 CNS = test system: SF-539 CNS
UACC-257 melanoma = test system: UACC-257 melanoma
HCT-15 colon = test system: HCT-15 colon
UACC-62 melanoma = test system: UACC-62 melanoma
SN12C renal = test system: SN12C renal
UO-31 renal = test system: UO-31 renal
SK-MEL-2 melanoma = test system: SK-MEL-2 melanoma
KM12 colon = test system: KM12 colon
SR leukemia = test system: SR leukemia
CCRF-CEM leukemia = test system: CCRF-CEM leukemia
MDA-MB-435 = test system: MDA-MB-435
OVCAR-5 ovarian = test system: OVCAR-5 ovarian
MCF7 breast = test system: MCF7 breast
SW-620 colon = test system: SW-620 colon
HOP-62 NSCLC = test system: HOP-62 NSCLC
BT-549 breast = test system: BT-549 breast
PC-3 prostate = test system: PC-3 prostate
HOP-92 NSCLC = test system: HOP-92 NSCLC
HT29 colon = test system: HT29 colon
U251 CNS = test system: U251 CNS
K-562 leukemia = test system: K-562 leukemia
RPMI-8226 leukemia = test system: RPMI-8226 leukemia
MOLT-4 leukemia = test system: MOLT-4 leukemia
SK-MEL-5 melanoma = test system: SK-MEL-5 melanoma
ACHN renal = test system: ACHN renal
DU-145 prostate = test system: DU-145 prostate
NCI-H226 lung = test system: NCI-H226 lung
CAKI-1 renal = test system: CAKI-1 renal
T-47D breast = test system: T-47D breast
COLO 205 colon = test system: COLO 205 colon
IGROV1 ovarian = test system: IGROV1 ovarian
MDA-MB-231 breast = test system: MDA-MB-231 breast
SF-295 CNS = test system: SF-295 CNS
NCI/ADR-RES ovarian = test system: NCI/ADR-RES ovarian
SK-OV-3 ovarian = test system: SK-OV-3 ovarian
SNB-75 CNS = test system: SNB-75 CNS
TK-10 renal = test system: TK-10 renal
HL-60(TB) leukemia = test system: HL-60(TB) leukemia
NCI-H23 lung = test system: NCI-H23 lung
NCI-H460 lung = test system: NCI-H460 lung
OVCAR-4 ovarian = test system: OVCAR-4 ovarian
MALME-3M melanoma = test system: MALME-3M melanoma
HCC-2998 colon = test system: HCC-2998 colon

## COc1ccc(-c2ccc(-c3ccc(C(=N)N)c(F)c3)s2)cc1
M14 melanoma
  GI50: 651 nM
  TGI: 1910 nM
SK-MEL-28 melanoma
  GI50: 1510 nM
  TGI: 3190 nM
HS 578T breast
  GI50: 1900 nM
  TGI: 4710 nM
SF-539 CNS
  GI50: 793 nM
  TGI: 2630 nM
UACC-257 melanoma
  GI50: 1340 nM
  TGI: 2940 nM
HCT-15 colon
  GI50: 211 nM
  TGI: 528 nM
UACC-62 melanoma
  GI50: 1800 nM
  TGI: 3700 nM
SN12C renal
  GI50: 622 nM
  TGI: 1520 nM
UO-31 renal
  GI50: 1010 nM
  TGI: 2720 nM
SK-MEL-2 melanoma
  GI50: 2010 nM
  TGI: 4100 nM
KM12 colon
  GI50: 291 nM
  TGI: 861 nM
SR leukemia
  GI50: 269 nM
  TGI: 787 nM
CCRF-CEM leukemia
  GI50: 286 nM
  TGI: 853 nM
MDA-MB-435
  GI50: 310 nM
  TGI: 881 nM
OVCAR-5 ovarian
  GI50: 323 nM
  TGI: 1120 nM
MCF7 breast
  GI50: 212 nM
  TGI: 502 nM
SW-620 colon
  GI50: 222 nM
  TGI: 541 nM
HOP-62 NSCLC
  GI50: 1530 nM
  TGI: 3070 nM
BT-549 breast
  GI50: 1570 nM
  TGI: 3240 nM
PC-3 prostate
  GI50: 787 nM
  TGI: 2290 nM
HOP-92 NSCLC
  GI50: 867 nM
  TGI: 2810 nM
HT29 colon
  GI50: 250 nM
  TGI: 707 nM
U251 CNS
  GI50: 184 nM
  TGI: 368 nM
K-562 leukemia
  GI50: 216 nM
  TGI: 573 nM
RPMI-8226 leukemia
  GI50: 369 nM
  TGI: 1800 nM
MOLT-4 leukemia
  GI50: 495 nM
  TGI: 1870 nM
SK-MEL-5 melanoma
  GI50: 1230 nM
  TGI: 2830 nM
ACHN renal
  GI50: 209 nM
  TGI: 448 nM
DU-145 prostate
  GI50: 564 nM
  TGI: 1760 nM
NCI-H226 lung
  GI50: 1990 nM
  TGI: 4640 nM
CAKI-1 renal
  GI50: 1540 nM
  TGI: 2990 nM
T-47D breast
  GI50: 185 nM
  TGI: 413 nM
COLO 205 colon
  GI50: 184 nM
  TGI: 359 nM
IGROV1 ovarian
  GI50: 1840 nM
  TGI: 4510 nM
MDA-MB-231 breast
  GI50: 215 nM
  TGI: 515 nM
SF-295 CNS
  GI50: 741 nM
  TGI: 2120 nM
NCI/ADR-RES ovarian
  GI50: 1090 nM
  TGI: 3440 nM
SK-OV-3 ovarian
  GI50: 1570 nM
  TGI: 3160 nM
SNB-75 CNS
  GI50: 1620 nM
  TGI: 3310 nM
TK-10 renal
  GI50: 720 nM
  TGI: 1910 nM
HL-60(TB) leukemia
  GI50: 215 nM
  TGI: 462 nM
NCI-H23 lung
  GI50: 1430 nM
  TGI: 3350 nM
NCI-H460 lung
  GI50: 261 nM
  TGI: 690 nM
OVCAR-4 ovarian
  GI50: 296 nM
  TGI: 868 nM
MALME-3M melanoma
  GI50: 2290 nM
  TGI: 4700 nM
HCC-2998 colon
  GI50: 230 nM
  TGI: 478 nM
